Data on 95 compounds can be found in the kinase profiling compilation of Christmann-Franck et al. (2016).

The target in the experiment is SGK1 (human) (UniProt O00141). The experiment in a line: Flashplate.
Sequence of SGK1 (human) (O00141 whole entry, looked up): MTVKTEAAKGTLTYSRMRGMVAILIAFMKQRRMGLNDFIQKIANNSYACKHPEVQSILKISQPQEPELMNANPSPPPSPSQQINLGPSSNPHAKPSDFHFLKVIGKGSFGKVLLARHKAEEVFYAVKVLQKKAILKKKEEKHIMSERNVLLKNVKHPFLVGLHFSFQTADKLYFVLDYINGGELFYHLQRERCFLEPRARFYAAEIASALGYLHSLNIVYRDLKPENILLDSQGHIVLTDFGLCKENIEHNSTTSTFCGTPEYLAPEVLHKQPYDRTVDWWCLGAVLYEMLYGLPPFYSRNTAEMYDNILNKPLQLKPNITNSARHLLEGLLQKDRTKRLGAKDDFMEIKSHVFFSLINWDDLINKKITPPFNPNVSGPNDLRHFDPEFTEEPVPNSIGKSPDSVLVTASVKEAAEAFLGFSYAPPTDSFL
As for `Cn1c2ccccc2c2c3c(c4c5ccccc5n(CCC#N)c4c21)CNC3=O`, the Ki is over 10 µM.

The compound `Cc1cccc(-c2c(-c3ccncc3)nc(NC[C@@H](N)Cc3ccccc3)n(C)c2=O)c1` displayed an inhibitory constant (Ki) of over 10 µM.

The compound `O=C1NCc2c1cccc2-c1ccc(Nc2nc3ccccc3[nH]2)cc1` gave a Ki of 5.01 µM.

For `N[C@@H](COCc1ccccc1)COc1cncc(/C=C/c2ccncc2)c1`, the Ki is over 10 µM.

As for `N#Cc1ccc(-c2n[nH]c3c2Cc2ccc(OCCN4CCOCC4)cc2-3)cn1`, the Ki was over 10 µM.

`CNC(=O)/C=C/c1cnc(N)c2c(-c3ccc4sc(C)nc4c3)csc12` showed a Ki of over 10 µM.

Turning to `COc1cc(-c2ccc3c(c2)Nc2ccc(C(=O)NCc4cccc(F)c4)cc2NC3=O)ccc1O`, the Ki was over 10 µM.

The compound `CN1CCN([C@H]2CC[C@H](n3cc(-c4ccc(Oc5ccccc5)cc4)c4c(N)ncnc43)CC2)CC1` showed a Ki of over 10 µM.

In turn, `COCCNc1nccc(-c2c(-c3ccc(F)cc3)nc3cnccn23)n1` displayed a Ki of over 10 µM.

Regarding `Cc1cccc(NC(=O)Nc2ccc(-c3csc4c(C#CCN(C)C)cnc(N)c34)cc2)c1`, the Ki was 6.31 µM.

On to `CC(=O)Nc1c(C(N)=O)sc2ccc(Cl)c(Cl)c12`, for which the Ki worked out at 3.98 µM.

Take `N#Cc1ncc2nc1OCCCCCOc1cc(OCCO)c(Cl)cc1NC(=O)N2`: the Ki was over 10 µM.

As for `Oc1ccc(Nc2[nH]nc(-c3ccc(O)cc3)c2-c2ccc(O)cc2)cc1`, the Ki was 0.1 µM.

`COc1ccc(-c2cc3nccn3c(Nc3ncccc3C(N)=O)n2)cc1OC` showed a Ki of over 10 µM.

On to `O=c1c(NCc2cccc(C(F)(F)F)c2)c(Nc2ccncc2)c1=O`, for which the Ki turned out to be 2 µM.

Turning to `COc1ccc2c(c1)/C(=C/c1cnc[nH]1)C(O)=N2`, the Ki turned out to be 1 µM.

For `C[C@@H](NC(=O)c1ccc(-c2ccncc2)cc1)c1ccccc1`, the Ki stood at 2 µM.

`CNc1nccn2c(-c3ccnc(NCC(C)(C)CO)n3)c(-c3ccc(F)cc3)nc12`: the Ki is over 10 µM.

For `Cc1n[nH]c2c1C(c1ccccc1F)C1=C(CC(C)(C)CC1=O)N2` (stereo not given), the Ki is over 10 µM.

In the case of `Cc1n[nH]c2cccc(-c3ccc(NC(=O)Nc4cccc(C(F)(F)F)c4)cc3)c12`, the Ki is over 10 µM.

For `Cn1cncc1C(OCc1c(-c2ccc(OC(F)(F)F)cc2)cc(C#N)c(=O)n1C)c1ccc(C#N)cc1` (stereo not given), the Ki is over 10 µM.

`Cc1cccc(NC(=O)Nc2ccc(-c3csc4ncnc(N)c34)cc2)c1` returned a Ki of over 10 µM.

Turning to `c1ccc(CSc2nc(-c3ccncc3)n[nH]2)cc1`, the Ki is 7.94 µM.

Compound `NC(=O)c1cccc2[nH]c(-c3ccc(NC(=O)c4cccc(S(=O)(=O)N5CCOCC5)c4)cc3)nc12` returned a Ki of over 10 µM.

As to `NC(=O)c1ccc(-c2c[nH]c3nccc(Cl)c23)cc1`, the Ki stood at 0.251 µM.

Consider `Nc1c(-c2ccc(NC(=O)Nc3cccc(C(F)(F)F)c3)cc2)ccc2nccnc12`, for which the Ki is over 10 µM.

Turning to `CCOc1ccc(NC(=O)Nc2ccc(-c3csc4c(-c5cnn(C)c5)cnc(N)c34)cc2)cc1`, the Ki is over 10 µM.

`O=C(NNC(=S)Nc1ccc(F)cc1)C(O)(c1ccccc1)c1ccccc1` gave a Ki of over 10 µM.

On to `CC(C)Oc1ccc(-c2noc(-c3ccc(N[C@H]4CC[C@@H](C(=O)O)C4)cc3)n2)cc1Cl`, for which the Ki is over 10 µM.

For the compound `CN(C)c1ccc(CNC(=O)c2cc3c(-c4ccccc4)n[nH]c3s2)cc1`, the Ki is 7.94 µM.

In turn, `Cc1c(O)cccc1NC(=O)c1cnn2c(-c3ccccc3)ccnc12` returned a Ki of over 10 µM.

The compound `Cc1ccc(-c2nn(C(C)(C)C)c3ncnc(N)c23)cc1` came in with an inhibition constant (Ki) of over 10 µM.

In turn, `COc1cc(N2CCC(N3CCN(C)CC3)CC2)ccc1Nc1ncc(Cl)c(Nc2ccccc2S(=O)(=O)C(C)C)n1` had a Ki of over 10 µM.

In turn, `C[C@H](Nc1c(Nc2ccncc2)c(=O)c1=O)C1CCCCC1` registered a Ki of over 10 µM.

Turning to `C[C@H](Nc1nccc(-c2c(-c3ccc(F)cc3)nc3occn23)n1)c1ccccc1`, the Ki is over 10 µM.

Compound `CCOc1nc(C(=O)NCc2cccnc2)cc(N)c1C#N` returned a Ki of over 10 µM.

Turning to `NS(=O)(=O)c1cccc(Nc2ncc3ccn(-c4ccccc4)c3n2)c1`, the Ki came out at 1.26 µM.

Compound `Cc1nc2ccccn2c1-c1csc(Nc2ccc(O)cc2)n1` displayed a Ki of over 10 µM.

With `CCCC(=O)Nc1cccc(-c2nc(Nc3ccc4[nH]ncc4c3)c3cc(OCCN4CCCC4)ccc3n2)c1`, the Ki was determined as 0.501 µM.

`Cc1nsc2[nH]cc(C(=O)O)c(=O)c12` displayed a Ki of over 10 µM.

`N#Cc1c(O)[nH]c(=O)c2c(=N)oc3ccc(Cl)cc3c12` displayed a Ki of over 10 µM.

`COc1cc(-c2ccc3c(c2)Nc2ccc(C(=O)NCCNC(C)=O)cc2NC3=O)ccc1O` returned a Ki of 10 µM.

`Cc1ccc(NC(=O)Nc2ccc(-c3csc4ncnc(N)c34)cc2)cc1C` returned a Ki of over 10 µM.

With `Cc1nn(C)c2c1c(=O)c1cc(Cl)ccc1n2OCC(C)C`, the Ki was over 10 µM.

Take `Cc1ccc(CNc2c(Nc3ccncc3)c(=O)c2=O)cc1`: the Ki was determined as 3.98 µM.

Consider `Cc1nn(C)c(C)c1-c1cccc2c(CCCOc3cccc4ccccc34)c(C(=O)O)[nH]c12`, for which the Ki was over 10 µM.

Regarding `OCCCNc1ncnc2[nH]cc(-c3ccccc3)c12`, the Ki is over 7.94 µM.

The compound `CC(C)(CO)c1nnc2ccc(-c3c(-c4ccc(F)cc4F)nc4occn34)nn12` gave a Ki of over 10 µM.

In turn, `O=C(NCCCCCCNC(=O)Nc1cccnc1)Nc1cccnc1` came in with a Ki of over 10 µM.

The compound `COc1cc(S(C)(=O)=O)c(OC)cc1CC(=O)Nc1cc(N)c(C#N)c(OC(C)C)n1` showed a Ki of over 10 µM.

The compound `CC(=O)N[C@@H]1CCN(c2nc3[nH]cc(C(=O)O)c(=O)c3c(C)c2F)C1` registered a Ki of over 10 µM.

`Nc1noc2cccc(-c3cccc(O)c3)c12` had an inhibitory constant (Ki) of over 10 µM.

As to `O=C(Cc1ccccc1)Nc1cccc(-c2nc3sccn3c2-c2ccnc(Nc3cccc(N4CCCC4=O)c3)n2)c1`, the Ki is over 10 µM.

Regarding `Clc1ccc(-c2n[nH]cc2-c2ccncn2)cc1Cl`, the Ki was over 10 µM.

`Cc1cc(C)c2oc(Nc3ccc(-c4cccc(C(N)=O)c4N)cc3F)nc2c1`: the Ki is over 10 µM.

`C[C@@H](O)Cn1cc(-c2cnc(N)c3c(-c4ccc(NC(=O)Nc5cccc(F)c5)cc4)csc23)cn1` gave a Ki of 2.51 µM.

Compound `Cc1cc(OC2CCCC2)c(NC(=O)Nc2cnc(C#N)cn2)cc1Cl` gave a Ki of over 10 µM.

The compound `CC(C)Oc1nccn2c(-c3ccnc(NCC(C)(C)CO)n3)c(-c3ccc(F)cc3F)nc12` registered a Ki of over 10 µM.

For the compound `Cc1cc2cc(-c3csc4c(-c5cccc(S(C)(=O)=O)c5)cnc(N)c34)ccc2[nH]1`, the Ki is over 10 µM.

The compound `Clc1csc2ncnc(Nc3ccccc3)c12` came in with a Ki of over 10 µM.

`O=C(O)c1ccc(N2C(=O)c3ccccc3C2=O)cc1O` came in with a Ki of over 10 µM.

On to `N[C@H](COc1cncc(-c2ccc(F)cc2)c1)Cc1c[nH]c2ccccc12`, for which the Ki was over 10 µM.

As for `CCc1c(-c2ccc(C(C)(C)O)cc2)[nH]c2nccnc12`, the Ki is over 10 µM.

`Cc1cccc(NC(=O)Nc2ccc(-c3csc4c(C#Cc5cccnc5)cnc(N)c34)cc2)c1` returned a Ki of over 10 µM.

`Cc1cc2nnc(SCc3cn4ccccc4n3)n2c2ccccc12`: the Ki is over 10 µM.

`COc1cccc(Nc2ncnc3ccccc23)c1`: the Ki was over 10 µM.

Compound `O=C(CO)N1CCC(c2[nH]nc(-c3ccc(Cl)cc3F)c2-c2ccncn2)CC1` displayed a Ki of over 10 µM.

In turn, `Nc1ncnc2c1N=C(c1ccc(NC(=O)Nc3cccc(C(F)(F)F)c3)cc1)CCN2` gave a Ki of 2.51 µM.

The compound `Nc1ncnc2c1c(I)nn2[C@@H]1O[C@H](CO)[C@@H](O)[C@H]1O` displayed a Ki of over 10 µM.

`Cc1cccc(NC(=O)Nc2ccc(-c3cnc4c(-c5cnn(C)c5)cnn4c3N)cc2)c1` gave a Ki of 6.31 µM.

The compound `CC(C)=C(C)c1cccc2c(CCCOc3cccc(Cl)c3Cl)c(C(=O)O)[nH]c12` registered a Ki of over 10 µM.

As for `CN(C)CC(=O)N[C@H](COc1cncc(-c2ccc3cnccc3c2)c1)Cc1c[nH]c2ccccc12`, the Ki was 7.94 µM.

On to `Cc1ccc(NC(=O)Nc2ccc(-c3cccc4c3CNC4=O)cc2)cc1C`, for which the Ki was over 10 µM.

Take `CNS(=O)(=O)c1ccccc1Nc1nc(Nc2cc(N3CCN(C(C)=O)CC3)ccc2OC)ncc1Br`: the Ki is over 10 µM.

Consider `Nc1nonc1-n1nnc(C(=O)N/N=C/c2cccs2)c1-c1cccs1`, for which the Ki is over 10 µM.

In the case of `COc1cc(C)c(Cl)cc1NC(=O)Nc1cnc(C#N)cn1`, the Ki was over 10 µM.

Take `CS(=O)(=O)NCCOc1cncc(-c2ccc3cnccc3c2)c1`: the Ki stood at 3.98 µM.

For the compound `O=C1NCc2c1cccc2-c1ccc(Nc2nc3ccccc3o2)cc1`, the Ki is over 10 µM.

`COc1cc(Nc2ncc(F)c(Nc3ccc4c(n3)NC(=O)C(C)(C)O4)n2)cc(OC)c1OC` returned a Ki of over 7.94 µM.

`O=C(Cc1ccccc1)Nc1cccc(-c2nc3sccn3c2-c2ccnc(Nc3cccc(N4CCOCC4)c3)n2)c1` had a Ki of over 10 µM.

Compound `Nc1ncnc2c1N=C(c1ccc(NC(=O)Nc3cc(C(F)(F)F)ccc3F)cc1)CCN2` displayed a Ki of 2.51 µM.

On to `O=C(c1cc(-c2ccc3[nH]ncc3c2)on1)N1CCC[C@@H](O)C1`, for which the Ki is over 10 µM.

`Cc1cccc(NC(=O)Nc2ccc3c(c2)CCc2sc4ncnc(N)c4c2-3)c1` returned a Ki of over 10 µM.

With `Cc1n[nH]c2ccc(-c3cncc(OCCN)c3)cc12`, the Ki was 2 µM.

In turn, `O=c1[nH]c2cc(-c3ccccc3)cnc2[nH]1` displayed a Ki of over 10 µM.

`Cc1ccc2c(c1)NC(=O)c1ccccc1N2` gave an inhibitory constant (Ki) of over 10 µM.

In the case of `CNC(=O)COc1ccc(Nc2nc(Nc3ccc(C)c(S(N)(=O)=O)c3)ncc2F)cc1`, the Ki is over 10 µM.

In turn, `Brc1cnc2[nH]cc(-c3ccccc3)c2c1` returned a Ki of 1.58 µM.

`Nc1nnc(-c2cc3c(Oc4ccc(Cl)cc4)cncc3s2)o1` displayed a Ki of 1.58 µM.

`Cc1cc(Nc2cc(N3CCN(C)CC3)nc(/C=C/c3ccccc3)n2)n[nH]1` came in with a Ki of over 10 µM.

As to `OCCCn1cnc(-c2ccc(F)cc2)c1-c1ccncc1`, the Ki was over 10 µM.

In turn, `Cn1c(=O)c(Oc2ccc(F)cc2F)cc2cnc(NC3CCOCC3)nc21` showed a Ki of over 10 µM.

As for `O=C(NCCCCCCNC(=O)NCc1cccnc1)NCc1cccnc1`, the Ki was over 10 µM.

The compound `Cc1n[nH]c2c1C(c1ccccc1I)C(C#N)=C(N)O2` (stereo not given) came in with a Ki of over 10 µM.

In turn, `CN1CCN(c2cccc(Nc3nccc(-c4c(C(N)=O)nc5ccccn45)n3)c2)CC1` displayed a Ki of over 10 µM.
